Measurements from US10568992B2, “Peptides for supporting endothelial progenitor cell rolling and capture and endothelialization of biomaterials” (Auburn University, priority 2015, dated 2020).
Bridges are numbered along the chain shown (N, C = ends). Where no end group is shown, it is not given here.

Experiments:
integrin α5β1 = integrin α5β1 (Homo sapiens, UniProt P05556+P08648); conditions: among the non-RGD containing peptides of the library; cited from earlier work
[1] = tested on: endothelial colony forming cells (ECFCs); test: Adhesion of ECFCs on peptide-grafted PEG hydrogels (static); type: cell-based; conditions: for ECFC adhesion and spreading: after 24 hours; for ECFC monolayer formation and cobble stone morphology: peptide-grafted hydrogels
From the text: ECFC adhesion on (A) CRRETAWAC (SEQ ID NO:1)-(B) PRb ([…]), —(C) P11 (SEQ ID NO: 11)-grafted PEG hydrogels.
Adhesion of ECFCs on CRRETAWAC (SEQ ID NO:1)-, PRb (SEQ ID NO:18)-, P11 (SEQ ID NO: 11)-grafted hydrogels was first accessed. […] On P11-grafted hydrogels, ECFCs aggregated to form adherent cell clumps. […] Without the ability to support cell spreading and the formation of monolayer, P11 alone could not support ECFC endothelialization which is critical for healing damaged and diseased blood vessels.

[2] = tested on: endothelial colony forming cells (ECFCs); test: ECFC capture on peptide-grafted PEG hydrogels under shear; type: cell-based; conditions: 20 s^−1; for ECFCs captured (captured cells normalized to total cells interacting with hydrogel surface): 2 min recordings, total 0.7 μmol/mL peptide grafted (combinations 0.35/0.35 μmol/mL), mean±SD (n=3); for ECFC capture events (in words): low shear rate
Description: (§1) Umbilical cord blood ECFCs were used in this study. To create the peptide-grafted PEG surfaces, PEG-DA was first photopolymerized to form a hydrogel base. Peptides were conjugated to acryloyl-PEG-SVA to produced the PEG-peptides, and 0.7 μmol/mL of each PEG-peptide was grafted onto the surface of the PEG hydrogel base. Shear experiments were performed to examine ECFC rolling and adhesion on the hydrogel surfaces. Using a Glycotech parallel plate flow chamber, the ECFC cell suspension was sheared over the hydrogels at shear rates of 20 s^−1, 40 s^−1, 80 s^−1, and 120 s^−1. Cell rolling events were recorded at 70 fps using a high speed camera. Cell tracking was performed using ImageJ and Matlab to determine rolling velocities. Finally ECFC retention on the RGDSQ ID NO:3)-grafted PEG hydrogels was quantified under superphysiological shear stress.
Cell capture events were consistently observed on CRRETAWAC (SEQ ID NO:1)- and PRb (SEQ ID NO:18)-grafted hydrogels at 20 s^−1. Number of captured cells were counted and normalized to the total number of cells interacted with each hydrogel surface. During each of the 2 min recordings, 3.74%±1.0% of ECFCs were captured on CRRETAWAC (SEQ ID NO:1)-grafted hydrogels and 1.14%±0.2% of ECFCs were captured on PRb-grafted hydrogels FIG. 9. Since both of these novel peptides are specific for the integrin α5β1, the result of this study strongly supports that α5β1 is responsible for cell capture.
To further evaluate the potential use of CRRETAWAC (SEQ ID NO:1) and PRb in the ECFC capture for endothelialization, ECFC rolling on hydrogels that were grafted with combinations of CRRETAWAC (SEQ ID NO:1) or PRb (SEQ ID NO:18) with REDV (SEQ ID NO:2) was assessed. In order to maintain consistent grafting of peptides, a final concentrations of 0.7 μmol/mL of equal molar mixtures of acryloyl-PEG-peptides precursors were grafted onto the surface of PEG hydrogels.

[3] = tested on: endothelial colony forming cells (ECFCs); test: ECFC rolling on peptide-grafted PEG hydrogels under shear (parallel plate flow chamber); type: cell-based; design: ECFC rolling velocity: unit not given here; conditions: for ECFC rolling velocity: 0.7 μmol/mL PEG-peptide grafted hydrogel; for ECFC rolling velocity / ECFC rolling velocities / rolling velocities of ECFCs: mean±SD (n=3); for ECFC rolling velocities: FIG. 15A; for support of ECFC rolling (velocity below rolling cutoff, 40% of average fluid velocity): shear rates 20-120 s^−1; for rolling velocities of ECFCs: FIG. 13A
Description: as §1
To form the PEG-peptide grafting solution, the acryloyl-PEG-peptide was first dissolved in sterile PBS at the desired concentration (ranging from 0.7 mM to 5.6 mM) and the photoinitiator was added as described above. After each PEGDA hydrogel was photocrosslinked, the top plate of the mold was removed. The hydrogels were rinsed with sterile PBS and briefly dried with a stream of nitrogen to remove excess PBS on the surface of the hydrogel. The mold's 0.5 mm PDMS spacers were replaced with 0.7 mm PDMS spacers and a clean glass slide was placed on top. Then the PEG-peptide grafting solution was injected between the hydrogel and the new piece of glass and photocrosslinked to the top of the PEGDA hydrogel under the UV lamp for 7 min. PEG-peptide grafted hydrogels were then rinsed and swollen in sterile PBS for experiments.
To identify whether a cell is rolling, the upper velocity cutoff was determined by flowing ECFCs across the surface of control PEG hydrogels at different shear rates. Using video recordings, ECFC rotation on the focal plane of PEG hydrogels was observed. […] Therefore, based on these experiments, 40% of average fluid flow velocity was used as the cutoff velocity for cell rolling as is shown in FIG. 12.

αvβ3 integrin = αvβ3 integrin (Homo sapiens, UniProt P05106+P06756); conditions: among 12 HXXXHK hexapeptides; cited from earlier work
Chain of αvβ3 integrin (P06756 31-889 limits assumed): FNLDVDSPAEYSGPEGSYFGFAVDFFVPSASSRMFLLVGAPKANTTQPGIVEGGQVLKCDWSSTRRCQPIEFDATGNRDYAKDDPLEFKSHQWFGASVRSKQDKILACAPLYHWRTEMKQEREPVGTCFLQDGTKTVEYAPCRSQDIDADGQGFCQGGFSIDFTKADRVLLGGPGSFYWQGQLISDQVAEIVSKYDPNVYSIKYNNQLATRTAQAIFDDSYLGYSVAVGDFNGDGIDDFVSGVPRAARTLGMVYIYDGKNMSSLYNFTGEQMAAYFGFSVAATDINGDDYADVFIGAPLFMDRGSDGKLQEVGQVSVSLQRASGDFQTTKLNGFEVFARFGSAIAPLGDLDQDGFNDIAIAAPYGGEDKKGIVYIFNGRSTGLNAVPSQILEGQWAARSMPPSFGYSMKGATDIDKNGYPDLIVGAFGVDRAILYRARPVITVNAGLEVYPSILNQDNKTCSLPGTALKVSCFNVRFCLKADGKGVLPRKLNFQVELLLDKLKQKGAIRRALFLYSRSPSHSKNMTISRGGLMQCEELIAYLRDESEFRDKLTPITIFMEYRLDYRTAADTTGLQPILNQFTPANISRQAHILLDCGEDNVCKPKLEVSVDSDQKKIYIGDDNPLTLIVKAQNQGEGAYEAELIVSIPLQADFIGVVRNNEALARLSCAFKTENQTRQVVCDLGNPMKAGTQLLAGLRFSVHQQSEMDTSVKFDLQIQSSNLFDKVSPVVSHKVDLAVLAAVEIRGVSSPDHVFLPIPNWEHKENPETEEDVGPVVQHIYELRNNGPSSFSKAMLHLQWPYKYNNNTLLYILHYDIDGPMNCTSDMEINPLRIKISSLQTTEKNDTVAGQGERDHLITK
Chain of αvβ3 integrin (P06756 891-1048 partner limits assumed): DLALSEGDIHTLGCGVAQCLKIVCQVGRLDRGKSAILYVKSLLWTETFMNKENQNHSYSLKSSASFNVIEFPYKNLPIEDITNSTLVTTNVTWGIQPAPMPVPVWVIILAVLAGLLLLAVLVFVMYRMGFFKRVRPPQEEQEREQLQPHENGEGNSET
Chain of αvβ3 integrin (P05106 27-788): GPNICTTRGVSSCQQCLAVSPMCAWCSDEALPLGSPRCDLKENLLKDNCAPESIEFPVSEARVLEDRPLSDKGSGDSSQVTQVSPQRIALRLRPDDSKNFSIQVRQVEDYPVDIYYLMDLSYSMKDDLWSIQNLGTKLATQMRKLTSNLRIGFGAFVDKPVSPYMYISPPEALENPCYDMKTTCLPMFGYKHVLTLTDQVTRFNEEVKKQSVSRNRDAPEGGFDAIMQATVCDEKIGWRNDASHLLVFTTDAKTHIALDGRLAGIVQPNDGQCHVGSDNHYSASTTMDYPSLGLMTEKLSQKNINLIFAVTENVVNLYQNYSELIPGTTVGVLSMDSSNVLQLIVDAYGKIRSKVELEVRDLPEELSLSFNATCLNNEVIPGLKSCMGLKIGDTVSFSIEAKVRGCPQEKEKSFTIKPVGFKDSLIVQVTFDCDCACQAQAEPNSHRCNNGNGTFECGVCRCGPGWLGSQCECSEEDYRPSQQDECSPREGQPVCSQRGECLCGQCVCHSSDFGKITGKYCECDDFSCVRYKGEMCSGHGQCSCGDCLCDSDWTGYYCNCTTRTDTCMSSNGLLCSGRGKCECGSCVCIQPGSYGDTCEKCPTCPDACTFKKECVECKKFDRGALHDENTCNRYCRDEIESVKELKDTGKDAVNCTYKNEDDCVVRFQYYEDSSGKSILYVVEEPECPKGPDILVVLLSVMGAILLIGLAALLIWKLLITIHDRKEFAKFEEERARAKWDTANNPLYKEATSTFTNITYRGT

Chain of integrin α5β1 (P08648 42-894 limits assumed): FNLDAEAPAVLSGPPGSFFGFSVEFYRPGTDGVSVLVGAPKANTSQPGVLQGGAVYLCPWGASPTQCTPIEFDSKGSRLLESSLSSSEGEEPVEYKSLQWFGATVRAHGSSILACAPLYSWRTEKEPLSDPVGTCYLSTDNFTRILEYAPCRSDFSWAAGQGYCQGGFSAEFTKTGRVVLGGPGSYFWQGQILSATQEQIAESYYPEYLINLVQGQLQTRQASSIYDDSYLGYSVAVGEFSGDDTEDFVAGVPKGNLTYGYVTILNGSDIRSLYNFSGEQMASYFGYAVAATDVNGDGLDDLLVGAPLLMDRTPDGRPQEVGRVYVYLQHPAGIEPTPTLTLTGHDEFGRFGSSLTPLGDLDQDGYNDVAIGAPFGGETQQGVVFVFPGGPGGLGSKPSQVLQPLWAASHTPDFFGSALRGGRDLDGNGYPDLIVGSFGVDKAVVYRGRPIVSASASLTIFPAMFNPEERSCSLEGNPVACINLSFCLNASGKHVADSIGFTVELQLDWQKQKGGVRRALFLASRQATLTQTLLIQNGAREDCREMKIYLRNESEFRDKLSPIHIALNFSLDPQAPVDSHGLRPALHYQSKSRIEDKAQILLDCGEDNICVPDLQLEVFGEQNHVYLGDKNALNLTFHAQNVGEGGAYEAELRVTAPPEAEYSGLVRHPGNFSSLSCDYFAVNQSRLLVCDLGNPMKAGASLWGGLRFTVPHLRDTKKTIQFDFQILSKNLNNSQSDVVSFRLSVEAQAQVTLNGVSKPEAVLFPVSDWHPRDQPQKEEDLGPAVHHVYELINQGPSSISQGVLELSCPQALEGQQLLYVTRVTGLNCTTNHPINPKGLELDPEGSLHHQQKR
Chain of integrin α5β1 (P08648 895-1049 partner limits assumed): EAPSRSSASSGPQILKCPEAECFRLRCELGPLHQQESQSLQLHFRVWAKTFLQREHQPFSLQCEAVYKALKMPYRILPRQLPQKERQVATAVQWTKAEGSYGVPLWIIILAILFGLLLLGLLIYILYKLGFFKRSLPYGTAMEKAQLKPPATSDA
Chain of integrin α5β1 (P05556 21-798): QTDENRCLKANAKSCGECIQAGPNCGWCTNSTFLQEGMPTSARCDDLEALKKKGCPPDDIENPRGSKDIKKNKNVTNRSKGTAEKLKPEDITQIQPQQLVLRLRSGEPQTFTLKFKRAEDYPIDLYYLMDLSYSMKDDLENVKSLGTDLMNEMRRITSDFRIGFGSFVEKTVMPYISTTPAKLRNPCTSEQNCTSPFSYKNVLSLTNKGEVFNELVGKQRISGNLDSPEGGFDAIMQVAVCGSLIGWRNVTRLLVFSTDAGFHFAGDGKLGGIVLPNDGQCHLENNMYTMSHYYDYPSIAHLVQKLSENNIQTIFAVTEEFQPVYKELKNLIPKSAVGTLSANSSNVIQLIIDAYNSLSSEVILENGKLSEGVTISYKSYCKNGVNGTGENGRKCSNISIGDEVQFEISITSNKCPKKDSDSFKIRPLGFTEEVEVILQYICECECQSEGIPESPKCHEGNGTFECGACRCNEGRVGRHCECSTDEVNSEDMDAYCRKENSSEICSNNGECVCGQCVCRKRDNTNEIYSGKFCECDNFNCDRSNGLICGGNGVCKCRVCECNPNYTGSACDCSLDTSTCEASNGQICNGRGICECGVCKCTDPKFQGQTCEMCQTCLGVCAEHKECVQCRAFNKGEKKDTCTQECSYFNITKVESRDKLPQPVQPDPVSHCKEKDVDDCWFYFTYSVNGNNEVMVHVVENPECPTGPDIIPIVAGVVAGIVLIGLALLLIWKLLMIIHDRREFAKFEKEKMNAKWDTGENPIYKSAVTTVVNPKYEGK

Row | Substance | affinity to α5β1 (integrin α5β1) | ECFC adhesion and spreading [1] | ECFC monolayer formation and cobble stone morphology [1] | ECFCs captured (captured cells normalized to total cells interacting with hydrogel surface) [2] | ECFC rolling velocity ([3]; shear rate 20 1/s) | ECFC rolling velocity ([3]; shear rate 40 1/s) | ECFC rolling velocity ([3]; shear rate 80 1/s) | ECFC rolling velocity ([3]; shear rate 120 1/s) | competition with fluorescently labeled VN for αvβ3 (αvβ3 integrin) | ECFC capture events (in words) [2] | ECFC rolling velocities ([3]; 20 s^−1) | ECFC rolling velocities ([3]; 40 s^−1) | ECFC rolling velocities ([3]; 80 s^−1) | ECFC rolling velocities ([3]; 120 s^−1) | support of ECFC rolling (velocity below rolling cutoff, 40% of average fluid velocity) [3] | rolling velocities of ECFCs ([3]; 20 s^−1) | rolling velocities of ECFCs ([3]; 40 s^−1) | rolling velocities of ECFCs ([3]; 80 s^−1) | rolling velocities of ECFCs ([3]; 120 s^−1)
1 | CRRETAWAC (disulfide 1-9 (inferred); also: grafted on PEG hydrogel via acryloyl-PEG) | highest affinity | supported ECFC adhesion and spreading | able to form monolayer and maintain cobble stone morphology | 3.74% | 131.6 | 278.4 ± 28.6 | 550.6 ± 64.1 | 828.4 ± 82.7 |  |  |  |  |  |  |  |  |  |  | 
2 | HSDVHK [Peptide P11, synthesized as HSDVHKG] |  | only able to support ECFC adhesion, but not spreading | not |  | 127.5 | 251.0 ± 41.2 | 508.0 ± 86.5 | 787.6 ± 102.1 | most competitive for αvβ3 |  |  |  |  |  |  |  |  |  | 
3 | PHSRNSGSGSGSGSGRGDSG [PRb] |  | supported ECFC adhesion and spreading | able to form monolayer and maintain cobble stone morphology | 1.14% | 110.3 | 235.0 ± 36.1 | 485.7 ± 67.5 | 735.1 ± 102.6 |  |  |  |  |  |  |  |  |  |  | 
4 | REDV (also: PEG conjugate) |  |  | not |  | 78.6 | 183.3 ± 43.4 | 353.8 ± 82.0 | 564.3 ± 177.0 |  | does not support capture even at low shear rates | 79±4 μm s^−1 | 181±6 μm s^−1 | 357±6 μm s^−1 | 560±15 μm s^−1 | supported ECFC rolling |  |  |  | 
5 | RGDS (also: PEG conjugate) [ubiquitous cell adhesion peptide] |  |  | able to form monolayer and maintain cobble stone morphology |  | 102.2 | 218.7 ± 42.4 | 455.8 ± 86.7 | 739.7 ± 121.9 |  | Some ECFC capture events were observed |  |  |  |  | supported ECFC rolling at all shear rates | 103±3 μm/s | 223±14 μm/s | 469±38 μm/s | 741±28 μm/s
6 | RGES (also: PEG conjugate) |  |  |  |  |  |  |  |  |  |  |  |  |  |  | did not support ECFC rolling |  |  |  | 
7 | YIGSRG (also: PEG conjugate) |  |  | not |  | 103.2 | 223.2 ± 38.0 | 487.6 ± 72.5 | 737.0 ± 107.9 |  |  | 102±9 μm s^−1 | 223±22 μm s^−1 | 484±12 μm s^−1 | 740±10 μm s^−1 | supported ECFC rolling |  |  |  | 
